Experimental data reported in ChEMBL document CHEMBL5661976 (Cancer Res, 2007).

Experiments:
[1] = molecular target: Receptor tyrosine-protein kinase erbB-2 (Mus musculus, UniProt P70424); test: Inhibition of ERBB2 expressed in mouse NIH3T3 cells; type: cell-based
[2] = molecular target: AMP-activated protein kinase, AMPK; test: Inhibition of recombinant AMPK (unknown origin); type: protein-complex assay, Homo sapiens
[3] = molecular target: Serine/threonine-protein kinase Chk1 (Homo sapiens, UniProt O14757); test: Inhibition of recombinant CHK1 (unknown origin)
Chain of Serine/threonine-protein kinase Chk1 (O14757 whole entry): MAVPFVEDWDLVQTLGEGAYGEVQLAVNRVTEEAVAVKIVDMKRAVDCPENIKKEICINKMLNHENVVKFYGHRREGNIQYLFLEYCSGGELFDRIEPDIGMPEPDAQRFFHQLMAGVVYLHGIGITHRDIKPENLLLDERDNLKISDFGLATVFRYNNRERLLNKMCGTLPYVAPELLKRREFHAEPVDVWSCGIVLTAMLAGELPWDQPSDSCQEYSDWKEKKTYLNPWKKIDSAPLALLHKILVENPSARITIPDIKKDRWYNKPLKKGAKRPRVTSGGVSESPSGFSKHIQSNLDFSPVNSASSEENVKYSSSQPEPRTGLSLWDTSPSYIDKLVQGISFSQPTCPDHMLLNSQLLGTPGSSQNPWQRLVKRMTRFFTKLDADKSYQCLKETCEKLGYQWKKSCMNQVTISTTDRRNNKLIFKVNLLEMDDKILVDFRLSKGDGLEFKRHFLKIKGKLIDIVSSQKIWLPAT

[4] = molecular target: Casein kinase I; test: Inhibition of recombinant CK1 (unknown origin); type: protein assay, Homo sapiens
[5] = molecular target: Casein kinase 2 (Homo sapiens, UniProt P67870+P68400+P19784+Q8NEV1); test: Inhibition of recombinant CK2 (unknown origin); type: protein assay
[6] = molecular target: Tyrosine-protein kinase CSK (Homo sapiens, UniProt P41240); test: Inhibition of recombinant CSK (unknown origin)
[7] = molecular target: Dual specificity tyrosine-phosphorylation-regulated kinase 1A (Homo sapiens, UniProt Q13627); test: Inhibition of recombinant DYRK1a (unknown origin)
[8] = molecular target: Glycogen synthase kinase-3 beta (Homo sapiens, UniProt P49841); test: Inhibition of recombinant GSK3b (unknown origin)
[9] = molecular target: Mitogen-activated protein kinase 8 (Homo sapiens, UniProt P45983); test: Inhibition of recombinant SAPK1c (unknown origin)
Chain of Mitogen-activated protein kinase 8 (P45983 whole entry): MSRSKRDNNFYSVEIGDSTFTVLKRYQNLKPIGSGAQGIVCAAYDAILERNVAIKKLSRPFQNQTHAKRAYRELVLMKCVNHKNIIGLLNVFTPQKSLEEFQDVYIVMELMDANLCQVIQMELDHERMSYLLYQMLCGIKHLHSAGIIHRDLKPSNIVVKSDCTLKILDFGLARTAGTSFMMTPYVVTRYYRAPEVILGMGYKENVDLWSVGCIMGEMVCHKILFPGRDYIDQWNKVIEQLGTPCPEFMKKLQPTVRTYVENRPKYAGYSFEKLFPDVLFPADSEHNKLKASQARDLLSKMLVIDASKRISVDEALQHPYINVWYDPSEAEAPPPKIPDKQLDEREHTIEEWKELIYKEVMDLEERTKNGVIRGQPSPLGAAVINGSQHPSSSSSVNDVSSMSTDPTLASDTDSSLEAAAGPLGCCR

[10] = Inhibition of recombinant MAPK2/ERK2 (unknown origin); design: species or system Homo sapiens
[11] = molecular target: Ribosomal protein S6 kinase alpha-1 (Homo sapiens, UniProt Q15418); test: Inhibition of recombinant MAPKAP-K1a (unknown origin)
Chain of Ribosomal protein S6 kinase alpha-1 (Q15418 whole entry): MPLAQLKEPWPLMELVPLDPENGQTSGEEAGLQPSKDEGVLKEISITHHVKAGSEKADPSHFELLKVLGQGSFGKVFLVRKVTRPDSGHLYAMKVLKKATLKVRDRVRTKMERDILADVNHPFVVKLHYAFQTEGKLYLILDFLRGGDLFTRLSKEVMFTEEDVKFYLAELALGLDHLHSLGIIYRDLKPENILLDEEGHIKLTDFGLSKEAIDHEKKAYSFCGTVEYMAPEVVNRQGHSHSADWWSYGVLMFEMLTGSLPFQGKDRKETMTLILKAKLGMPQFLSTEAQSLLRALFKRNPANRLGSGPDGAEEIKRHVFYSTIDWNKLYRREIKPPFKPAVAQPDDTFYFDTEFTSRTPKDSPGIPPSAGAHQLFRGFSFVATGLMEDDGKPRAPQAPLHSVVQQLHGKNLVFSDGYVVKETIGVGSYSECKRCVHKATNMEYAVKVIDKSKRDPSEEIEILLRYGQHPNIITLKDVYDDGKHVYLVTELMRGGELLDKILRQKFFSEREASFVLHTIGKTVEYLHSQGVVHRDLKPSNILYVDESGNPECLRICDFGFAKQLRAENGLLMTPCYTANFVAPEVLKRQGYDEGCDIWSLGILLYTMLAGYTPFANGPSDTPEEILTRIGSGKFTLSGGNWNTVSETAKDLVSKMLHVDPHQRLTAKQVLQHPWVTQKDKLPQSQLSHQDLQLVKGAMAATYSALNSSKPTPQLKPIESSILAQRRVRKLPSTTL

[12] = molecular target: MAP kinase-activated protein kinase 2 (Homo sapiens, UniProt P49137); test: Inhibition of recombinant MAPKAP-K2 (unknown origin)
[13] = molecular target: Ribosomal protein S6 kinase alpha-5 (Homo sapiens, UniProt O75582); test: Inhibition of recombinant MSK1 (unknown origin)
[14] = molecular target: Serine/threonine-protein kinase Nek6 (Homo sapiens, UniProt Q9HC98); test: Inhibition of recombinant NEK6 (unknown origin)
[15] = molecular target: Serine/threonine-protein kinase Nek2 (Homo sapiens, UniProt P51955); test: Inhibition of recombinant NEK2a (unknown origin)
[16] = Inhibition of recombinant PDGF (unknown origin); design: species or system Homo sapiens
[17] = Inhibition of recombinant PKB delta ph mutant (unknown origin); design: species or system Homo sapiens
[18] = molecular target: Protein kinase C alpha type (Homo sapiens, UniProt P17252); test: Inhibition of recombinant PKCa (unknown origin)
[19] = molecular target: MAP kinase-activated protein kinase 5 (Homo sapiens, UniProt Q8IW41); test: Inhibition of recombinant PRAK (unknown origin)
[20] = Inhibition of recombinant p70S6K (unknown origin); design: species or system Homo sapiens
[21] = molecular target: Rho-associated protein kinase 2 (Homo sapiens, UniProt O75116); test: Inhibition of recombinant ROCK-II (unknown origin)
Chain of Rho-associated protein kinase 2 (O75116 whole entry): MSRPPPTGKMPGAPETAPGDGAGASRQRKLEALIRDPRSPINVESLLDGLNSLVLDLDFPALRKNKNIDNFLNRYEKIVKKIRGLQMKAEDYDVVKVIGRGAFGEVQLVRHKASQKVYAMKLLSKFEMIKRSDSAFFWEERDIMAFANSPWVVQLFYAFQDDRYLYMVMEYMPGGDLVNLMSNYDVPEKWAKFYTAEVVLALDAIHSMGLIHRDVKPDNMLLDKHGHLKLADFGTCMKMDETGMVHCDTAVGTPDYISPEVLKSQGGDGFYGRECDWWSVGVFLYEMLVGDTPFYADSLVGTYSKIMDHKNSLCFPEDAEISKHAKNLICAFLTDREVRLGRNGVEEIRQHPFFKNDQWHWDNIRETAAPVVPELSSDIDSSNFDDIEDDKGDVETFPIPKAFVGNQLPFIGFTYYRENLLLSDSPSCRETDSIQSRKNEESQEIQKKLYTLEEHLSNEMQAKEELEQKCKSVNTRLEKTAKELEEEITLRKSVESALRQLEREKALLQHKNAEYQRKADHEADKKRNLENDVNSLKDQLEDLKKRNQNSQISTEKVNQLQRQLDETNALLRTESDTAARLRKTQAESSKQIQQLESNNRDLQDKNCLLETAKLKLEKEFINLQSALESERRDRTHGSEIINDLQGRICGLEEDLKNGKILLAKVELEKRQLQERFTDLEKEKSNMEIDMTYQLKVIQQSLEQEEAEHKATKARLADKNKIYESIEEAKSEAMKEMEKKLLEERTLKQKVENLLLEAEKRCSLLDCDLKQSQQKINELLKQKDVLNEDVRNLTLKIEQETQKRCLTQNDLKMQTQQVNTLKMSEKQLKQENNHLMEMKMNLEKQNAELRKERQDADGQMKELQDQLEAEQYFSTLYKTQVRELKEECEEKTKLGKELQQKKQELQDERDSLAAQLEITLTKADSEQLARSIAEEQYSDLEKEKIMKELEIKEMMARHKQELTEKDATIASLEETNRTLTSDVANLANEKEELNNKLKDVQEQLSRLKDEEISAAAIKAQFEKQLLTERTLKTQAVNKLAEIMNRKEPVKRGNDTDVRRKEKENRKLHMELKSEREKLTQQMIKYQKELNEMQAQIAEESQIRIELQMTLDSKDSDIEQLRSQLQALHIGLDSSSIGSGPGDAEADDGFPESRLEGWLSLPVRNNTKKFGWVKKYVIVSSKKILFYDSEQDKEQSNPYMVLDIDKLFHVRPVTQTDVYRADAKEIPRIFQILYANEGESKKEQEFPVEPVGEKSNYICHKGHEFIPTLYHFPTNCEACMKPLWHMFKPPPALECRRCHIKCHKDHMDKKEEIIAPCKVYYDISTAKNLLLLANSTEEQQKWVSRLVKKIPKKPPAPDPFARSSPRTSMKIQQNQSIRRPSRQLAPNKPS

[22] = molecular target: Mitogen-activated protein kinase 14 (Homo sapiens, UniProt Q16539); test: Inhibition of recombinant SAPK2a/p38 (unknown origin)
[23] = molecular target: Mitogen-activated protein kinase 11 (Homo sapiens, UniProt Q15759); test: Inhibition of recombinant SAPK2b/p38beta2 (unknown origin)
Chain of Mitogen-activated protein kinase 11 (Q15759 whole entry): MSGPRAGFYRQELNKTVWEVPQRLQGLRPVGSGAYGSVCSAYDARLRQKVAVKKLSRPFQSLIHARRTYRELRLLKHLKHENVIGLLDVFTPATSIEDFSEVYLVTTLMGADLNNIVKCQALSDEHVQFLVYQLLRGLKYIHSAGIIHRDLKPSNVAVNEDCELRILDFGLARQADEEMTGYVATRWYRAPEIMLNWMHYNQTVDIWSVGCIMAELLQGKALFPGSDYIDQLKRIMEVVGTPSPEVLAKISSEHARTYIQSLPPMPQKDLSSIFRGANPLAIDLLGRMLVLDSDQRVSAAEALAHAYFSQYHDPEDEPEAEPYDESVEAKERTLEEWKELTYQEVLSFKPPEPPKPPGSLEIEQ

[24] = molecular target: Mitogen-activated protein kinase 12 (Homo sapiens, UniProt P53778); test: Inhibition of recombinant SAPK3/p38gamma (unknown origin)
Chain of Mitogen-activated protein kinase 12 (P53778 whole entry): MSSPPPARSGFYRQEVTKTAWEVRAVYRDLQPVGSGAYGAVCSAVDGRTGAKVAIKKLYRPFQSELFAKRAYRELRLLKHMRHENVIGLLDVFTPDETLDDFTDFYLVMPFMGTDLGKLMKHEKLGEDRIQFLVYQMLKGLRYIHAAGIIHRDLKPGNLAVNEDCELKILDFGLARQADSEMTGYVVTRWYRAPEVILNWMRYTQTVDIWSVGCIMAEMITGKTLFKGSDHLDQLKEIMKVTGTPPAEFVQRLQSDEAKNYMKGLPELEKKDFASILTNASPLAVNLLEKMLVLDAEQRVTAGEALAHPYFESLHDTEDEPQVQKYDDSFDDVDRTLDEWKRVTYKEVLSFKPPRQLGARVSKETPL

[25] = molecular target: Mitogen-activated protein kinase 13 (Homo sapiens, UniProt O15264); test: Inhibition of recombinant SAPK4/p38delta (unknown origin)
[26] = molecular target: Serine/threonine-protein kinase Sgk1 (Homo sapiens, UniProt O00141); test: Inhibition of recombinant SGK (unknown origin)
Chain of Serine/threonine-protein kinase Sgk1 (O00141 whole entry): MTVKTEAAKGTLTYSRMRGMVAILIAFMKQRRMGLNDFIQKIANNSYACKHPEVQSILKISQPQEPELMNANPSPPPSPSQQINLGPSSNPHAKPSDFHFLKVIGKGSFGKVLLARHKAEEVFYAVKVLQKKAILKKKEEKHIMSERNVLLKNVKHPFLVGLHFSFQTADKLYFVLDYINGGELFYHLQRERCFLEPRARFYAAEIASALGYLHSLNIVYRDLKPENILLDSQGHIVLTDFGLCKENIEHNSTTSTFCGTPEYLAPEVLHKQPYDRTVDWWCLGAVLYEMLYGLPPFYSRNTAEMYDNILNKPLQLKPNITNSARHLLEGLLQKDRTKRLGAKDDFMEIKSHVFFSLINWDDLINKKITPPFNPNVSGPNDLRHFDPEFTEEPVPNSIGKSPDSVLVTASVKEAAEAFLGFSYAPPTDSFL

[27] = molecular target: Wee1-like protein kinase (Homo sapiens, UniProt P30291); test: Inhibition of recombinant Wee1 (unknown origin)
Chain of Wee1-like protein kinase (P30291 whole entry): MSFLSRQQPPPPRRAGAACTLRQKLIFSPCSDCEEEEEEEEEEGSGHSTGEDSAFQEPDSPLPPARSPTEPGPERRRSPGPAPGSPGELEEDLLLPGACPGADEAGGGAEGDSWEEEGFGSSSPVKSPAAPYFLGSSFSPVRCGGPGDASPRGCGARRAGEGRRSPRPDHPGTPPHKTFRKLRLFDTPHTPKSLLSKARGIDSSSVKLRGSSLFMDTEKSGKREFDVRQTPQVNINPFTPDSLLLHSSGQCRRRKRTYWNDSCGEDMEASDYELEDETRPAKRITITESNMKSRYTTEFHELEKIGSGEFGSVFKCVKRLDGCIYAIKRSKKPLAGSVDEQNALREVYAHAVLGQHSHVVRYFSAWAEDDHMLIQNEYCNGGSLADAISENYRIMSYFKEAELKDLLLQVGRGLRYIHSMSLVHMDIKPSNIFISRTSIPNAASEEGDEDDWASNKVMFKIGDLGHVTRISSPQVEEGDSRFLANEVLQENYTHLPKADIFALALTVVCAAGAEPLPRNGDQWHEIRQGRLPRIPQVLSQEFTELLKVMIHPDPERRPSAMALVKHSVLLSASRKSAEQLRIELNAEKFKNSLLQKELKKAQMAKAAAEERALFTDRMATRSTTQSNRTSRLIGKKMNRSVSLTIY

[28] = Inhibition of recombinant Akt (unknown origin); design: species or system Homo sapiens
[29] = Inhibition of recombinant Bir Kinase (unknown origin); design: species or system Homo sapiens
[30] = Inhibition of recombinant CDK2/Cyclin A (unknown origin); design: species or system Homo sapiens
[31] = molecular target: Cyclin-dependent kinase 4/cyclin D (Homo sapiens, UniProt P11802); test: Inhibition of recombinant CDK4/Cyclin D (unknown origin); type: protein-complex assay
[32] = molecular target: Tyrosine-protein kinase Fes/Fps (Homo sapiens, UniProt P07332); test: Inhibition of recombinant FES (unknown origin)
[33] = molecular target: Insulin-like growth factor 1 receptor (Homo sapiens, UniProt P08069); test: Inhibition of recombinant IGF1R (unknown origin)
[34] = molecular target: Dual specificity mitogen-activated protein kinase kinase 1 (Homo sapiens, UniProt Q02750); test: Inhibition of recombinant MEK1 (unknown origin)
[35] = molecular target: cAMP-dependent protein kinase (PKA) (Homo sapiens, UniProt P22694+P17612+P22612); test: Inhibition of recombinant PKA (unknown origin); type: protein assay
[36] = tested on: A549; test: cells; type: functional, cell-based; details: Homo sapiens, A549, 72 h
Description: Antiproliferative activity against human A549 cells harboring K-ras G12S mutant assessed as inhibition of cell growth incubated for 72 hrs by MTS assay

[37] = tested on: NCI-H441; test: cells; type: functional, cell-based; details: Homo sapiens, NCI-H441, 72 h
Description: Antiproliferative activity against human NCI-H441 cells harboring K-ras G12V mutant assessed as inhibition of cell growth incubated for 72 hrs by MTS assay

[38] = tested on: H322; test: cells; type: functional, cell-based; details: Homo sapiens, NCI-H322, 72 h
Description: Antiproliferative activity against human H322 cells assessed as inhibition of cell growth incubated for 72 hrs by MTS assay

[39] = tested on: Calu-3; test: cells; type: functional, cell-based; details: Homo sapiens, Calu-3, 72 h
Description: Antiproliferative activity against human Calu-3 cells overexpressing ERBB2 assessed as inhibition of cell growth incubated for 72 hrs by MTS assay

[40] = cells; type: functional, cell-based; details: Homo sapiens, NCI-H1819, 72 h
Description: Antiproliferative activity against human NCI-H1819 cells overexpressing ERBB2 assessed as inhibition of cell growth incubated for 72 hrs by MTS assay

COc1cc2ncnc(Nc3ccc(F)c(Cl)c3)c2cc1NC(=O)/C=C/CN1CCCCC1 [DACOMITINIB ANHYDROUS]
IC50 [1]: 0.041 µM
IC50 [2]: > 10 µM
IC50 [3]: > 10 µM
IC50 [4]: > 10 µM
IC50 [5]: > 10 µM
IC50 [6]: > 10 µM
IC50 [7]: > 10 µM
IC50 [8]: > 10 µM
IC50 [9]: > 10 µM
IC50 [10]: > 10 µM
IC50 [11]: > 10 µM
IC50 [12]: > 10 µM
IC50 [13]: > 10 µM
IC50 [14]: > 10 µM
IC50 [15]: > 10 µM
IC50 [16]: > 10 µM
IC50 [17]: > 10 µM
IC50 [18]: > 10 µM
IC50 [19]: > 10 µM
IC50 [20]: > 10 µM
IC50 [21]: > 10 µM
IC50 [22]: > 10 µM
IC50 [23]: > 10 µM
IC50 [24]: > 10 µM
IC50 [25]: > 10 µM
IC50 [26]: > 10 µM
IC50 [27]: > 10 µM
IC50 [28]: > 40 µM
IC50 [29]: > 40 µM
IC50 [30]: > 40 µM
IC50 [31]: > 40 µM
IC50 [32]: > 40 µM
IC50 [33]: > 40 µM
IC50 [34]: > 40 µM
IC50 [35]: > 40 µM
IC50 [36]: > 10 µM
IC50 [37]: 4 µM
IC50 [38]: > 10 µM
IC50 [39]: 0.063 µM
IC50 [40]: 0.029 µM
